In one experiment the test system is Pancreatic NIT-1 β-cells. The experiment can be described thus: MTT viability assay on pancreatic NIT-1 β-cells. The class given is cell-based. The conditions noted are these: glucose 25.5 mM (hyperglycemic); 10 μM probucol, 10 μM HA-1. As for the experimental part: Cells were grown and processed in a Dulbecco's Modified Eagle's media with 11.5% foetal bovine serum, as per the protocols described below.
Specifically, the cells were cultured on T-75 cm^2 tissue culture flasks (Thermo Fisher Scientific®, Australia) and fed with Dulbecco's modified Eagle's medium (DMEM) (Gibco, Life Technologies, USA) supplemented with either 5.5 mM glucose or 25.5 mM glucose (Sigma Chemical Co, USA), 11.5% fetal bovine serum (Thermo Fisher Scientific, Australia), and 5% penicillin-streptomycin (Thermo Fisher Scientific, Australia). The β-cells were incubated in an environment of 5% CO2 in humidified air at 37° C. using a Nuaire NU-8500 Water Jacket CO2 Incubator (Nuaire, USA) for 72 hours.
The MTT assay for cellular mitochondrial activity is a common and an important analytical technique for determining the degree of cell viability and biological activity. Briefly, MTT was prepared as 5 mg/ml stock solution (Sigma Chemical CO, USA) in phosphate buffer, at pH 7.4 (Thermo Fisher Scientific, Australia). The undissolved residues were removed by sterile filtration. The stock solution was stored in a sterile environment at 4° C. in the dark and used within 7 days of preparation. […] Formazan was dissolved in 100 μl of dimethyl sulfoxide (DMSO) (Sigma Chemical CO, USA) via reverse pipetting and the resultant purple solution was analysed photometrically at 550 nm.

Experiment [1] concerns diabetic db/db mice. The experiment can be described thus: Diabetic phenotype: plasma glucose, triglycerides, insulin, cholesterol in diabetic db/db mice. The class given is in vivo. Conditions: for plasma cholesterol: 14 and 28 weeks of age (FIGS. 23G and 23H). An excerpt:
(§1) In this study, 4-5 week old diabetic db/db mice were put onto a diet containing probucol 0.1% (w/w) or HA-1 0.2% (w/w) for either 10 or 24 weeks, till the age of 14 or 28 weeks, respectively. Passive avoidance test was used to assess short-term memory. Subsequently, the mice were sacrificed to obtain plasma and brain tissue samples for further analyses.
Elevation in plasma glucose, triglycerides and insulin are typical signs of diabetes, with cholesterol to lesser extent. Levels of plasma glucose, plasma triglyceride, plasma insulin, and plasma cholesterol levels were measured at 14 weeks of age and at 28 weeks of age (FIG. 23) (*p<0.05, **p<0.01, ***p<0.001, ****p<0.0001, n=12).

Experiment [2] has as its system diabetic db/db mice. The experiment can be described thus: Plasma amyloid-β (Aβ40, Aβ42, oligomers, Aβ42/40 ratio) in diabetic db/db mice. The class given is in vivo. The source says:
In this study, 4-5 week old diabetic db/db mice were put onto a diet containing probucol 0.1% (w/w) or HA-1 0.2% (w/w) for either 10 or 24 weeks, till the age of 14 or 28 weeks, respectively. Passive avoidance test was used to assess short-term memory. Subsequently, the mice were sacrificed to obtain plasma and brain tissue samples for further analyses. […]

In experiment [3] the test system is Neurodegenerated cells (Parkinson's disease model). As to the kind of experiment: Gene expression analysis by qRT-PCR for neuronal, dopaminergic and PD associated markers. Format: cell-based, human. Conditions: 24 hours drug treatment. As to the method:
(§2) Perinatal tissue derived human stem cell model for Parkinson's disease (PD) was prepared using proprietary protocols to test the effect of new drug entities. Drug treatment was for 24 hours in all the assays.
Gene expression levels of mature neuronal marker (Synapsin I), dopaminergic markers (Nuclear receptor related 1 (Nurr1), Dopamine transporter (DAT) and Tyrosine hydroxylase (TH)), and PD associated marker (α-synuclein) were analysed to determine the effect of probucol, SPQ, HA-1 and L-Dopa.
(A) Synapsin I, (B) Nurr1, (C) DAT, (D) TH and (E) α-synuclein. (p<0.05; *p<0.05, **p<0.001, ***p<0.0001, n=3).
A general note: In qPCR the cycle at which signal appears reflects the starting amount.

Experiment [4] relates to rat model of repeated sub-concussion. The experiment can be described thus: Neuronal oxidative stress (8dOHG expression), rat model of repeated sub-concussion. Format: in vivo, Female PVG rats. Conditions: rats, 12-week repeated sub-concussion. An excerpt:
(§3) Female PVG rats aged 5-7 weeks were used. Under complete anaesthesia with isoflurane, a 25 g weight was dropped onto lambda of the skull from a 1 m height. This was repeated consecutively for 10 times per procedure. The procedure was repeated 3 times per week (i.e., Monday, Wednesday, Friday) for the duration of 12 weeks. Sham group rats received the same procedure without the weight drops. The probucol treatment group received probucol which was supplemented into the diet at 0.1% w/w. The HA-1 treatment group received HA-1 also in the diet at 0.2% w/w for the entire duration of the study.
The rats were then sacrificed to obtain brain tissue for further analyses.

The test system is the same in experiment [5]. The experiment can be described thus: Beamwalk test, rat model of repeated sub-concussion (Experimental Example 6). Format: in vivo, Female PVG rats. Conditions: rats, 12-week repeated sub-concussion, 2 cm beam; probucol 0.1% w/w, HA-1 0.2% w/w in diet (FIG. 20B).
Excerpt: as §3
(§4) After the completion of 12-week sub-concussion procedures, neuromotor function was tested with established rotarod and beamwalk tests. On beamwalk, the higher the slips show, the more impairment. On rotarod, the lower the latency indicates the more impairment.

Experiment [6] has as its system Neurodegenerated cells (Parkinson's disease model). As to the kind of experiment: Glutathione peroxidase / GSH activity, Parkinson's disease model. Format: cell-based, human. The conditions noted are these: PD model; vs neurodegeneration. As for the experimental part: as §2
Parkinson's disease-related increase in oxidative stress is associated with mitochondrial dysfunction and subsequent decrease in the levels of brain antioxidant glutathione (GSH).
(Statistical analysis: Results are expressed in mean±SD. One-way ANOVA followed by Dunnett's post hoc test was performed to compare all columns vs neurodegeneration (p<0.05; *p<0.05, **p<0.001, ***p<0.0001, ns=non-significant, n=3).)

The test system of experiment [7] is rat model of repeated sub-concussion. The experiment can be described thus: Rotarod test, rat model of repeated sub-concussion (Experimental Example 6). The class given is in vivo, Female PVG rats. The conditions noted are these: rats, 12-week repeated sub-concussion; probucol 0.1% w/w, HA-1 0.2% w/w in diet (FIG. 20A).
Excerpt: as §3, §4

Experiment [8] deals with diabetic db/db mice. The experiment can be described thus: Small intestinal apoB and Aβ in diabetic db/db mice. Format: in vivo.
Excerpt: as §1

Setting [9] is: 14 weeks of age, probucol 0.1% (w/w), HA-1 0.2% (w/w) in diet.

On to `CC(C)(Sc1cc(C(C)(C)C)c(O)c(C(C)(C)C)c1)Sc1cc(C(C)(C)C)c(O)c(C(C)(C)C)c1` [probucol, 2,6-ditert-butyl-4-[2-(3,5-ditert-butyl-4-hydroxyphenyl)sulfanylpropan-2-ylsulfanyl]phenol], for which the NIT-1 cell viability result in the experiment on Pancreatic NIT-1 β-cells is reported as “partially offset hyperglycaemia-induced pancreatic beta cell death”. Moreover, the plasma cholesterol entry with diabetic db/db mice [1] is “no beneficial effects on plasma cholesterol”. Further, in the experiment on diabetic db/db mice [1] (14 weeks of age), the plasma insulin entry is reported as “significantly reduced” and the plasma triglycerides result is recorded as “significantly attenuated plasma triglycerides”. Besides, the “plasma / blood glucose” value in the experiment with diabetic db/db mice [1] (setting [9]) is reported as “no significant effects”. Further, in the experiment with diabetic db/db mice [1] (28 weeks of age), the “plasma / blood glucose” value is listed as “significantly reduced blood glucose”, the plasma insulin entry was “lost the ameliorative effects on insulin” and the plasma triglycerides result is given as “significantly reduced plasma triglycerides”. Besides, in the experiment on diabetic db/db mice [2] (14 weeks of age), the “plasma Aβ40” value is given as “did not change plasma Aβ40 levels”, the “plasma Aβ42” value was “no beneficial effect” and the “plasma concentrations of Aβ oligomers” value was “not observed”. In addition, the “plasma concentrations of Aβ oligomers” value in the experiment with diabetic db/db mice [2] (28 weeks of age) is given as “not observed”. Besides, in [3], the “TH gene expression (qRT-PCR)” value is on record as “clearly upregulated” and the “α-synuclein gene expression (qRT-PCR)” value is “decreased expression of α-synuclein”. In addition, in experiment [4], the “expression of 8dOHG (oxidative stress) in HPF and CTX” value was “some increase of 8dOHG particularly in the CTX”. Besides, the “foot slips in beamwalk test” value in experiment [5] is “modestly attenuated”. Besides, the “glutathione (GSH) activity” value in [6] is “increase in the GSH activity”. Also, in experiment [7], the rotarod latency result was “did not show any changes”. In the experiment with diabetic db/db mice [8] (14 weeks of age), the “small intestinal Aβ” value is reported as “significantly attenuated” and the “small intestinal apoB” value is listed as “no significant reduction”. Moreover, the “small intestinal Aβ” value in the experiment on diabetic db/db mice [8] (28 weeks of age) is reported as “significantly attenuated”.

For the compound `CC(=O)O[C@@H]1CC[C@@]2(C)[C@H](CC[C@@H]3[C@@H]2CC[C@]2(C)[C@@H]([C@H](C)CCC(=O)Oc4c(C(C)(C)C)cc(SC(C)(C)Sc5cc(C(C)(C)C)c(O)c(C(C)(C)C)c5)cc4C(C)(C)C)CC[C@@H]32)C1` [HA-1, 2,6-di-tert-butyl-4-((2-((3,5-di-tert-butyl-4-hydroxyphenyl)thio)propan-2-yl)thio)phenyl (4R)-4-[(3R,5R,8R,9S,10S,13R,14S,17R)-3-acetoxy-10,13-dimethyl-2,3,4,5,6,7,8,9,11,12,14,15,16,17-tetradecahydro-1H-cyclopenta[a]phenanthren-17-yl]pentanoate], the NIT-1 cell viability entry with Pancreatic NIT-1 β-cells is “even more profound effect on ameliorating cell death”. In addition, the plasma cholesterol entry in the experiment with diabetic db/db mice [1] is “no beneficial effects on plasma cholesterol”. Moreover, in the experiment with diabetic db/db mice [1] (14 weeks of age), the plasma insulin result was “significantly reduced” and the plasma triglycerides result is given as “significantly attenuated plasma triglycerides”. For the same compound, the “plasma / blood glucose” value in the experiment with diabetic db/db mice [1] (setting [9]) is recorded as “modest decrease in blood glucose”. In the experiment with diabetic db/db mice [1] (28 weeks of age), the “plasma / blood glucose” value is “significantly reduced blood glucose with HA-1 presenting greater effects”, the plasma insulin result is reported as “lost the ameliorative effects on insulin” and the plasma triglycerides entry was “significantly reduced plasma triglycerides”. Besides, in the experiment on diabetic db/db mice [2] (14 weeks of age), the Aβ42/40 ratio result was “remarkably reduced”, the “plasma Aβ40” value is listed as “did not change plasma Aβ40 levels”, the “plasma Aβ42” value is listed as “remarkably attenuated” and the “plasma concentrations of Aβ oligomers” value is recorded as “significantly reduced”. In the experiment with diabetic db/db mice [2] (28 weeks of age), the Aβ42/40 ratio result is “remarkably reduced”, the “plasma Aβ40” value is “increased plasma Aβ40 levels”, the “plasma Aβ42” value is “significantly reduced” and the “plasma concentrations of Aβ oligomers” value is given as “significantly reduced”. Besides, in experiment [3], the “DAT gene expression (qRT-PCR)” value is recorded as “increase the expression of all the dopaminergic markers tested”, the “Nurr1 gene expression (qRT-PCR)” value is reported as “increase the expression of all the dopaminergic markers tested”, the “TH gene expression (qRT-PCR)” value is listed as “increase the expression of all the dopaminergic markers tested” and the “α-synuclein gene expression (qRT-PCR)” value is “decreased expression of α-synuclein”. In addition, in experiment [4], the “expression of 8dOHG (oxidative stress) in HPF and CTX” value is reported as “substantially attenuated the cerebral oxidative stress levels”. The “foot slips in beamwalk test” value in experiment [5] is given as “completely normalised”. Also, the “glutathione (GSH) activity” value in experiment [6] was “increase in the GSH activity”. Also, the rotarod latency result in experiment [7] is reported as “significant increase in the latency”. In the experiment on diabetic db/db mice [8] (14 weeks of age), the “small intestinal Aβ” value is “comparable or superior effects” and the “small intestinal apoB” value is “significantly attenuated”. Moreover, in the experiment with diabetic db/db mice [8] (28 weeks of age), the “small intestinal Aβ” value is recorded as “comparable or superior effects” and the “small intestinal apoB” value is “no longer seen”.

For `CC1(C)SC2(C=C(C(C)(C)C)C(=O)C(C(C)(C)C)=C2)C2(C=C(C(C)(C)C)C(=O)C(C(C)(C)C)=C2)S1` [SPQ, 2,4,9,11-tetrakis(1,1-dimethylethyl)-14,14-dimethyl-13,15-dithiadispiro[5.0.5.3]pentadeca-1,4,8,11-tetraene-3,10-dione], in experiment [3], the “DAT gene expression (qRT-PCR)” value is recorded as “significantly increased”, the “Synapsin I gene expression (qRT-PCR)” value is recorded as “significantly increased”, the “TH gene expression (qRT-PCR)” value is “significantly increased” and the “α-synuclein gene expression (qRT-PCR)” value is “decreased expression of α-synuclein”. Further, the “glutathione (GSH) activity” value in experiment [6] is “increase in the GSH activity”.

Values taken from patent US20240374739A1, “BILE ACID CONJUGATE” (Curtin University, priority 2021, published 2024).
